One data set concerns the target T1, sLRP1-CIV (Homo sapiens, UniProt Q07954).
T1 construct: purchased R&D Systems, USA
Briefly: Biacore (SPR) binding to immobilized sLRP1-CIV. The following applies: peptides at 20 μM. On the procedure: The interaction of the beta hairpin peptides with soluble fragments of the LRP1 receptor was studied by Surface Plasmon Resonance (SPR), using a Biacore X unit. In this technique, one of the interaction partners to be studied is immobilized on the surface of a chip, and the other interaction partner is dissolved in a solution that runs through the measurement cell on top of the interaction surface, under conditions of controlled flow. The association and dissociation of interacting partners is measured in resonance units (RU) and plotted, as a function of time, on charts known as ‘sensorgrams’. SPR, therefore, enables the experimenter to obtain detailed information about the interaction without having to label either interaction partner.
In this example, one channel of a CM5 chip (GE Healthcare, USA) was used to immobilize protein sLRP1-CIV on its surface at high density (see Table 6) and recombinant Human Serum Albumin (rHSA, Sigma-Aldrich, USA) was immobilized on the other channel.
Although it was decided to immobilize sLRP1-CIV at high density because these conditions make easier the detection of any potential interactions with compounds whose molecular weight is lower than that of average proteins (such as the peptides this experiment is intended to study), it must be stressed that in high-density surfaces, mass transfer limitations and the possibility of multivalent binding make difficult the accurate determination of kinetic constants. Therefore, and in order to characterize in greater detail the sLRP1-CIV binding surface, different RAP dilutions (0.6-20 μM) were loaded, and RU were registered under conditions of interaction equilibria (250 sec, see FIG. 13B). […] The data also indicate that immobilized sLRP1-CIV faithfully reproduces the previously reported characteristics of the LRP1-RAP interaction.
The binding of beta hairpin peptides to sLRP1-CIV was studied by loading 20 μM dilutions in running buffer of the different peptide variants onto the sLRP1-CIV chip characterized above. The high strength of the resulting signals is consistent with the binding of aggregated, rather than monomeric forms of the peptides. Therefore, the observed variations between different peptides may reflect either differences in the affinity of unitary peptide interactions or differences in aggregation numbers and/or geometries that lead to variations in the number of peptide units able to simultaneously engage immobilized sLRP1-CIV molecules in a multivalent manner. […] The difference between peptides HDIII3CL2 and HDIII3CL is that the former has an additional C-terminal lysine and has, therefore, a stronger cationic character, which may facilitate additional electrostatic interactions with the negatively charged LRP1 receptor.
On the technique in general: SPR reads the build-up and loss of mass on a sensor chip optically.

Data set [1] is described as follows: Light scattering aggregation kinetics. The format is physicochemical. On the procedure:
Light scattering was used to monitor the aggregation of peptide PHB4. The measurements were performed on a Shimadzu™ RF-5301PC (Shimadzu, Japan) spectrofluorimeter, acquiring data with the software provided by the instrument manufacturer. The wavelengths of the incident light beam (excitation) and the detector (emission) were set to 320 nm, using excitation and emission apertures of 5 nm. The scattering of light due to the peptide was calculated by subtracting, from the intensity of the light dispersed by the peptide, the intensity of the light dispersed by a solution without peptide (blank). Variations on light scattering due to the dissolution of the peptide in PBS were studied by acquiring data in time course mode, with a measurement frequency of 1 or 2 per second. The solutions of PHB4 in PBS were prepared by mixing one part of a solution of the peptide in water with one part of a PBS 2X solution.

Data set [2] is described as follows: Toxicity in Vero cells (MTT assay and manual cell counting). Format: cell-based. The following applies: ‡ non toxic at 1000 μM, read-out: Ctox50. The procedure:
The toxicity of the beta hairpin peptides was assessed with the MTT (3-(4,5-dimethylthiazol-2-yl)-2,5-diphenyltetrazolium bromide, Invitrogen, USA) assay (Mosmann, T. (1983). J. Immunol. Methods 65, 55-63.), and by manual cell counting using a Neubauer chamber. Ninety-six well plates (Costar, USA) were seeded with 200 μL/well of a suspension containing Vero cells at 1×10^5 cells/mL and incubated until the monolayers reached approximately 90% confluence, typically for 18-24 h. After washing the cells twice with DMEM (Dulbecco's Modified Eagle Medium) medium, 50 μL/well were added of the peptide or additive dilutions to be evaluated (Triton ^X-100™ dissolved in PBS was used as positive toxicity control) and the plates were incubated at 37° C. under a 5% CO2 atmosphere for 2 or 24 h. Two different procedures were then employed to measure toxicity: • a) A 2 mg/mL solution of MTT in PBS was added (50 μL/well) and the plates were incubated for further 4 h at 37° C., 5% CO2. The medium was then removed, and 100 μL/well of DMSO were then added to solubilize formazan precipitates. Finally, the optical density (OD) of the supernatants at a wavelength of 540 nm was measured using a plate reader (Sensident Scan™, Merck, Germany). • b) The plates were washed with 200 μL/well of DMEM medium and then a trypsin solution (Sigma, USA) was added at 50 μL/well. After inactivating the trypsin by adding 150 μL/well of DMEM supplemented with 10% FBS, the cells were counted using the Trypan Blue (Gibco, USA) vital stain. The data were processed using the statistical software package Prism v5.3 (GraphPad, USA), using non-linear regression to fit them to a log10 (concentration) vs response curve.

Data set [3] is described as follows: Transmission electron microscopy of aggregate morphology. Format: physicochemical. The procedure:
In order to analyze the morphology of the aggregates formed by peptide PHB4, peptide solutions were subjected to different experimental treatments where conditions such as temperature, incubation time and the presence of electrolytes were manipulated to facilitate aggregation (FIG. 10). For this particular study, two peptide solutions (2 mg/mL, 0.73 mM) were prepared, one in water and another in PBS. A sample was then taken from each, directly fixed on the grids and observed under the microscope (T0 samples). The remainder was incubated for 1 hour at 50° C. and then samples were taken and fixed immediately (T1 samples). The remainder was then incubated for an additional 2 hours at room temperature, and then fixed (T2 samples).

In another data set the test system is DENV4. Nature of the data set: In vivo protection assay, intracranial challenge, DENV4. Conditions: 30 μg peptide inoculated intracranially with 10 median lethal doses, 21 days. On the set-up: species or system Balb/c mice. On the procedure:
An experiment was set up to evaluate the in vivo antiviral activity of peptide PHB4 and compare it to that of peptide HDIII3CL. For this purpose, groups of 12 adult Balb/c mice (20 g average body weight) were anesthetized by ether inhalation and inoculated intracranially with 20 μL of viral preparations containing 10 times the median lethal dose of this model and the peptide to be evaluated. The animals recovered quickly and already appeared alert five minutes after the treatment, and were monitored afterwards for 21 days. The data were evaluated using the Kaplan-Meier logarithmic rank test.

Marks after values point to notes of the source that are not given here. Where a SMILES comes first, the peptide text is derived from it. Bridges are numbered along the chain shown (N, C = ends). [ ]: non-standard residue; d: D form.

In the case of `CC[C@H](C)[C@@H]1NC(=O)[C@H](Cc2ccccc2)NC(=O)[C@H](Cc2c[nH]c3ccccc23)NC(=O)[C@H](CC(N)=O)NC(=O)[C@H](C(C)C)NC(=O)[C@H](CCCCN)NC(=O)[C@H](Cc2c[nH]c3ccccc23)NC(=O)[C@H](CCCCN)NC(=O)[C@H]2CCCN2C(=O)[C@H](CCCNC(=N)N)NC(=O)[C@H]([C@@H](C)O)NC(=O)[C@H](Cc2c[nH]c3ccccc23)NC(=O)[C@H](Cc2ccc(O)cc2)NC(=O)[C@H](C(C)C)NC(=O)[C@H](CCC(=O)O)NC(=O)[C@H]([C@@H](C)CC)NC(=O)[C@@H](N)CSSC[C@@H](C(=O)N[C@@H](CCCCN)C(=O)N[C@@H](CCCCN)C(=O)N[C@@H](CCCCN)C(N)=O)NC1=O` [PHB4] (H-CIEVYWTR[dP]KWKVNWFICKKK-NH2; disulfide 1-18; N-terminus assumed), on sLRP1-CIV, the “Binding to sLRP1-CIV by SPR, in words” value is reported as “strongest binding”. Further, the “Maximum of ratio of dispersed light relative to time zero” value in data set [1] (5 μM peptide in PBS) turned out to be 11; in data set [1] (10 μM peptide in PBS), 7. In addition, the “Latency period before increase of dispersed light” value in data set [1] (dissolved into PBS) is listed as < 2 min. In data set [2], the CC50 was determined as 13 µM. In addition, in data set [3] (2 mg/mL in water, after 50° C. treatment), the “Size of protofibril/fibril-type filamentous structures” value is 5-10 nm. For the same compound, the Diameter of particulates in data set [3] (2 mg/mL in water, room temperature) was 5-20 nm. Further, in data set [3] (2 mg/mL, immediately after dissolving in PBS), the “Size of filamentous structures” value is reported as 5-20 nm. Moreover, the “Protection (%) DENV4” value with DENV4 is on record as 100*** %.

Values taken from patent publication US9896482B2, “Beta hairpin peptides having antiviral properties against Dengue virus” (CENTRO DE INGENIERÍA GENÉTICA Y BIOTECNOLOGÍA, priority 2014, dated 2018).
